Key:
[1] = rats, i.v.; for effect on 0-24 h Zn excretion: 10 μmol/kg MnDPDP alone, with 20 μmol/kg b.w. DPDP, or 10 μmol/kg b.w. DPDP, n=2
Description: 10 male Wistar rats (approximately 250 g) were injected intravenously, via one of the tail veins, with either 0, 0.125, 0.250, 0.500 or 0.750 ml of a 10 mM DPDP formulation, corresponding to 0, 5, 10, 20 and 30 μmol/kg b.w. […] After injection, the rats were immediately placed in metabolic cages for urine collection over a period of 0-24 hours. The urine samples were then stored at −80° C. until Zn and Mn analyses. Before analyses, the samples were thawed and extensively shaken to obtain homogenous samples. A five ml aliquot was taken from each sample and 5 ml concentrated nitric acid was added. The samples were then resolved in a microwave oven and thereafter diluted with distilled water to a final volume of 50 ml. The zinc (Zn) and manganese (Mn) content of each sample were analyzed by ICP-MS. Results are presented as total 0-24 h urine Zn and Mn content (expressed as μmol/kg b.w.±S.E.M.).

white blood cells [2] = details: mice, 10 mg/kg b.w. MnDPDP (Alexandre et al., 2006); cited from earlier work
[3] = i.v., 10 μmol/kg b.w.; humans (Toft et al.) and rats (Hustvedt et al.); cited from earlier work
[4] = rats, i.v.
Description: After injection, the rats were immediately placed in metabolic cages for urine collection over a period of 0-24 hours. To obtain basal content of manganese (Mn) in urine, two additional (control) rats were placed in metabolic cages for urine collection over the same period of time. The urine samples were then stored at −80° C. until Mn analysis. Before analysis, the samples were thawed and extensively shaken to obtain homogenous samples. A five ml aliquot was taken from each sample and 5 ml concentrated nitric acid was added. The samples were then resolved in a microwave oven and thereafter diluted with distilled water to a final volume of 50 ml. The Mn content of each sample was analyzed by ICP-MS (Inductively Coupled Plasma Mass Spectrometry). […] This sample was treated in an identical manner to that of the urine samples and analyzed for its Mn content. Results are presented as total 0-24 h urine Mn content (expressed as μmol/kg±S.E.M.) and as percentage (±S.E.M.) of the injected dose. The statistical difference between animals receiving MnDPDP alone and animals receiving MnDPDP and DPDP, with respect to excretion of manganese into the urine, was tested by an unpaired Student's t-test. A p-value lower than 0.05 was considered as a statistically significant difference.

[5] = rat, in vivo, ip
Description: Twenty-four hours later, the rats were killed and the brains were dissected out and stored at −80° C. until Mn analysis. […] Before analysis, each brain was resolved in 5 ml concentrated nitric acid plus 3 ml distilled water in a microwave oven, and thereafter diluted with distilled water to a final volume of 50 ml. The Mn and Zn content of each sample was analyzed by ICP-MS. Results are expressed as μg/g brain wet weight±S.E.M and percentage increase in Mn brain content. […] A p-value lower than 0.05 was considered as a statistically significant difference.

[6] = Literature pharmacokinetics of i.v. MnDPDP (Toft et al., 1997): manganese release, urine Mn and Zn, metabolism; type: in vivo; details: humans, 10 μmol/kg b.w., rough recalculation of data of Toft et al.
white blood cells [7] = test: Paclitaxel-induced myelosuppression (leucopenia) in mice, blood cell counts (Example 5); type: in vivo, BALB/c female mice; details: i.p., paclitaxel 20 mg/kg b.w. on days 0, 2, 4, blood day 10
Description: To test the therapeutic efficacy, initial experiments were conducted in BALB/c female mice (15-20 g), as described by Alexandre et al., JNCI 2006; 98:236-244).
Five mice were treated in each group. Paclitaxel was administered on days 0, 2, and 4. […] Ten days after the first injection the mice were anesthetized and blood samples were withdrawn by heart puncture into EDTA-tubes and blood cell counting (including white blood cell count (WBC); absolute neutrophil (ANC), monocyte and lymphocyte count) was conducted on a CELL-DYN Sapphire analyzer, after the blood samples had been diluted 1:1. Some samples had to be discarded because of clotting but all groups included at least blood from 3 animals.

effect of increasing doses of DPDP on 0-24 h Mn excretion ([1]; 0-30 μmol/kg b.w. DPDP) | effect on 0-24 h Zn excretion [1] | 0-24 h Zn excretion (saturation level) ([1]; at a dose of 10 μmol/kg b.w. DPDP) | amount of manganese released from the complex ([4]; as exemplified by Example 1) | Mn excretion in urine during 0-24 h as percentage of the injected dose ([4]; 0.25 ml 10 mM MnDPDP ± 0.5 ml 10 mM DPDP, mean±S.E.M., n=7) | amount of zinc in the urine up to 24 hours ([1]; 10 μmol/kg b.w. MnDPDP) | Zn brain content [5] | percentage increase in brain Mn [5] | renal zinc excretion [6] | reduction of the various white blood cells (white blood cells [7]) | SMILES | protection against paclitaxel-induced leucopenia (white blood cells [2]) | manganese originating from the chelator that comes out in the urine [3]
just minor effects | doubles the zinc excretion | around 4 μmol/kg | – | – | – | – | – | – | – | Cc1ncc(COP(=O)(O)O)c(CN(CCN(CC(=O)O)Cc2c(COP(=O)(O)O)cnc(C)c2O)CC(=O)O)c1O [DPDP, N,N′-bis-(pyridoxal-5-phosphate)-ethylenediamine-N,N′-diacetic acid] | – | –
– | relatively small effect | – | 85% | 15.7±1.1% | about 2 μmol/kg b.w. | identical | 23.5% | approximately 3 μmol/kg b.w. | – | Cc1ncc(COP(=O)(O)O)c(CN(CCN(CC(=O)O)Cc2c(COP(=O)(O)O)cnc(C)c2O)CC(=O)O)c1O.[Mn] [MnDPDP, Manganese N,N′-bis-(pyridoxal-5-phosphate)-ethylenediamine-N,N′-diacetic acid] | effectively protect | ≤ 20%
– | – | – | – | – | – | – | – | – | ~50% | CC(=O)O[C@H]1C(=O)[C@@]2(C)[C@H]([C@H](OC(=O)c3ccccc3)[C@]3(O)C[C@H](OC(=O)[C@H](O)[C@@H](NC(=O)c4ccccc4)c4ccccc4)C(C)=C1C3(C)C)[C@]1(OC(C)=O)CO[C@@H]1C[C@@H]2O [Paclitaxel, paclitaxel] | – | –

— patent publication US10688087B2, “Pharmaceutical compositions and therapeutic methods employing a combination of a manganese complex compound and a non-manganese complex form of the compound” (PLEDPHARMA AB, priority 2009, dated 2020)
